Measurements reported in the NIST ThermoML archive (doi:10.1016/j.jct.2015.08.014).

Assay: xn = mol fraction of the nth substance listed
Settings: 100 kPa, Liquid; for electrical conductivity: Alternating current cell with electrodes; for mass density: Vibrating tube method; for viscosity: Capillary tube (Ostwald / Ubbelohde) method

CCCC[N+]1(C)CCCC1.N#CN=C=[N-] [1-butyl-1-methylpyrrolidinium dicyanamide] + O=C1CCCO1
Settings	electrical conductivity [S/m]
283.15 K, Frequency=0.008 MHz, x1 = 0.0463	1.17
283.15 K, Frequency=0.008 MHz, x1 = 0.0987	1.73
283.15 K, Frequency=0.008 MHz, x1 = 0.1449	1.93
283.15 K, Frequency=0.008 MHz, x1 = 0.1859	2.028
283.15 K, Frequency=0.008 MHz, x1 = 0.2493	1.926
283.15 K, Frequency=0.008 MHz, x1 = 0.3029	1.84
283.15 K, Frequency=0.008 MHz, x1 = 0.3845	1.66
283.15 K, Frequency=0.008 MHz, x1 = 0.4985	1.407
283.15 K, Frequency=0.008 MHz, x1 = 0.6954	1.07
283.15 K, Frequency=0.008 MHz, x1 = 0.9013	0.849
283.15 K, Frequency=0.008 MHz, x1 = 1	0.786
283.15 K, Frequency=0.00857143 MHz, x1 = 0.0463	1.17
283.15 K, Frequency=0.00857143 MHz, x1 = 0.0987	1.73
283.15 K, Frequency=0.00857143 MHz, x1 = 0.1449	1.93
283.15 K, Frequency=0.00857143 MHz, x1 = 0.1859	2.028
283.15 K, Frequency=0.00857143 MHz, x1 = 0.2493	1.926
283.15 K, Frequency=0.00857143 MHz, x1 = 0.3029	1.84
283.15 K, Frequency=0.00857143 MHz, x1 = 0.3845	1.66
283.15 K, Frequency=0.00857143 MHz, x1 = 0.4985	1.407
283.15 K, Frequency=0.00857143 MHz, x1 = 0.6954	1.07
283.15 K, Frequency=0.00857143 MHz, x1 = 0.9013	0.849
283.15 K, Frequency=0.00857143 MHz, x1 = 1	0.786
283.15 K, Frequency=0.00892857 MHz, x1 = 0.0463	1.17
283.15 K, Frequency=0.00892857 MHz, x1 = 0.0987	1.73
283.15 K, Frequency=0.00892857 MHz, x1 = 0.1449	1.93
283.15 K, Frequency=0.00892857 MHz, x1 = 0.1859	2.028
283.15 K, Frequency=0.00892857 MHz, x1 = 0.2493	1.926
283.15 K, Frequency=0.00892857 MHz, x1 = 0.3029	1.84
283.15 K, Frequency=0.00892857 MHz, x1 = 0.3845	1.66
283.15 K, Frequency=0.00892857 MHz, x1 = 0.4985	1.407
283.15 K, Frequency=0.00892857 MHz, x1 = 0.6954	1.07
283.15 K, Frequency=0.00892857 MHz, x1 = 0.9013	0.849
283.15 K, Frequency=0.00892857 MHz, x1 = 1	0.786
283.15 K, Frequency=0.00961538 MHz, x1 = 0.0463	1.17
283.15 K, Frequency=0.00961538 MHz, x1 = 0.0987	1.73
283.15 K, Frequency=0.00961538 MHz, x1 = 0.1449	1.93
283.15 K, Frequency=0.00961538 MHz, x1 = 0.1859	2.028
283.15 K, Frequency=0.00961538 MHz, x1 = 0.2493	1.927
283.15 K, Frequency=0.00961538 MHz, x1 = 0.3029	1.84
283.15 K, Frequency=0.00961538 MHz, x1 = 0.3845	1.66
283.15 K, Frequency=0.00961538 MHz, x1 = 0.4985	1.407
283.15 K, Frequency=0.00961538 MHz, x1 = 0.6954	1.07
283.15 K, Frequency=0.00961538 MHz, x1 = 0.9013	0.849
283.15 K, Frequency=0.00961538 MHz, x1 = 1	0.786
283.15 K, Frequency=0.01 MHz, x1 = 0.0463	1.17
283.15 K, Frequency=0.01 MHz, x1 = 0.0987	1.73
283.15 K, Frequency=0.01 MHz, x1 = 0.1449	1.93
283.15 K, Frequency=0.01 MHz, x1 = 0.1859	2.028
283.15 K, Frequency=0.01 MHz, x1 = 0.2493	1.927
283.15 K, Frequency=0.01 MHz, x1 = 0.3029	1.84
283.15 K, Frequency=0.01 MHz, x1 = 0.3845	1.66
283.15 K, Frequency=0.01 MHz, x1 = 0.4985	1.407
283.15 K, Frequency=0.01 MHz, x1 = 0.6954	1.07
283.15 K, Frequency=0.01 MHz, x1 = 0.9013	0.849
283.15 K, Frequency=0.01 MHz, x1 = 1	0.786
293.15 K, Frequency=0.0005 MHz, x1 = 0.0463	1.36
293.15 K, Frequency=0.0005 MHz, x1 = 0.0987	2.03
293.15 K, Frequency=0.0005 MHz, x1 = 0.1449	2.31
293.15 K, Frequency=0.0005 MHz, x1 = 0.1859	2.426
293.15 K, Frequency=0.0005 MHz, x1 = 0.2493	2.37
293.15 K, Frequency=0.0005 MHz, x1 = 0.3029	2.28
293.15 K, Frequency=0.0005 MHz, x1 = 0.3845	2.108
293.15 K, Frequency=0.0005 MHz, x1 = 0.4985	1.84
293.15 K, Frequency=0.0005 MHz, x1 = 0.6954	1.45
293.15 K, Frequency=0.0005 MHz, x1 = 0.9013	1.19
293.15 K, Frequency=0.0005 MHz, x1 = 1	1.122
293.15 K, Frequency=0.001 MHz, x1 = 0.0463	1.36
293.15 K, Frequency=0.001 MHz, x1 = 0.0987	2.04
293.15 K, Frequency=0.001 MHz, x1 = 0.1449	2.31
293.15 K, Frequency=0.001 MHz, x1 = 0.1859	2.435
293.15 K, Frequency=0.001 MHz, x1 = 0.2493	2.37
293.15 K, Frequency=0.001 MHz, x1 = 0.3029	2.29
293.15 K, Frequency=0.001 MHz, x1 = 0.3845	2.111
293.15 K, Frequency=0.001 MHz, x1 = 0.4985	1.84
293.15 K, Frequency=0.001 MHz, x1 = 0.6954	1.46
293.15 K, Frequency=0.001 MHz, x1 = 0.9013	1.19
293.15 K, Frequency=0.001 MHz, x1 = 1	1.122
293.15 K, Frequency=0.0015 MHz, x1 = 0.0463	1.37
293.15 K, Frequency=0.0015 MHz, x1 = 0.0987	2.04
293.15 K, Frequency=0.0015 MHz, x1 = 0.1449	2.31
293.15 K, Frequency=0.0015 MHz, x1 = 0.1859	2.44
293.15 K, Frequency=0.0015 MHz, x1 = 0.2493	2.37

Settings	electrical conductivity, 293.15 K [S/m]	mass density, 283.15 K [kg/m3]	viscosity, 293.15 K [mPa·s]
x1 = 0.0463	1.37	–	–
x1 = 0.0987	2.05	1116.14	3.07
x1 = 0.1449	2.31	–	–
x1 = 0.1859	2.45	1099.19	4.46
x1 = 0.2493	2.37	–	–
x1 = 0.3029	2.29	1080.61	6.96
x1 = 0.3845	2.116	–	–
x1 = 0.4985	1.84	1057.34	13.06
x1 = 0.6954	1.46	1040.35	21.74
x1 = 0.9013	1.19	1027.12	33.58
x1 = 1	1.123	1021.96	40.25
